What was measured:
Test in all cases: selective drug sensitivity score (sDSS, relative to normal bone marrow) (sDSS (score)); higher = more potent and effective on the cell line relative to normal bone marrow cells
Details in all cases: 72 h
[1] = tested on: 380
[2] = tested on: ALL-PO
[3] = tested on: MHH-CALL-4
[4] = tested on: COG-LL-402h
[5] = tested on: TANOUE
[6] = tested on: MHH-CALL-2
[7] = tested on: JURKAT
[8] = tested on: PEER
[9] = tested on: 697
[10] = tested on: COG-LL-317
[11] = tested on: MN-60
[12] = tested on: TMD5
[13] = tested on: COG-LL-394h
[14] = tested on: KOPN-8
[15] = tested on: MOLT-4
[16] = tested on: MOLT-14
[17] = tested on: MOLT-16
[18] = tested on: COG-LL-319h
[19] = tested on: P12-ICHIKAWA
[20] = tested on: CCRF-HSB2
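Further: ALL cell lines in 384-well plates, five doses spanning 10,000-fold, each plate scaled between vehicle and 100 µmol/L benzalkonium chloride controls, sDSS an adapted area-under-curve metric.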

Compound: CNC(=O)c1ccc(N2C(=S)N(c3cnc(C#N)c(C(F)(F)F)c3)C(=O)C23CCC3)cc1F [Apalutamide] (top concentration 10000 nM)
- selective drug sensitivity score [1]: 0
- selective drug sensitivity score [2]: 0
- selective drug sensitivity score [3]: 0
- selective drug sensitivity score [4]: 0.2
- selective drug sensitivity score [5]: 0.1
- selective drug sensitivity score [6]: 0
- selective drug sensitivity score [7]: 0
- selective drug sensitivity score [8]: 0.1
- selective drug sensitivity score [9]: 0
- selective drug sensitivity score [10]: 0
- selective drug sensitivity score [11]: 0
- selective drug sensitivity score [12]: 0
- selective drug sensitivity score [13]: 0
- selective drug sensitivity score [14]: 0
- selective drug sensitivity score [15]: 0
- selective drug sensitivity score [16]: 0
- selective drug sensitivity score [17]: 0
- selective drug sensitivity score [18]: 0
- selective drug sensitivity score [19]: 0
- selective drug sensitivity score [20]: 0

Compound: N.N.[Cl][Pt][Cl] [Cisplatin] (top concentration 100000 nM)
- selective drug sensitivity score [1]: 7.54
- selective drug sensitivity score [2]: 8.44
- selective drug sensitivity score [3]: 10.7
- selective drug sensitivity score [4]: 1.54
- selective drug sensitivity score [5]: -3.16
- selective drug sensitivity score [6]: 14.6
- selective drug sensitivity score [7]: 13.1
- selective drug sensitivity score [8]: 2.64
- selective drug sensitivity score [9]: 19.7
- selective drug sensitivity score [10]: 23.2
- selective drug sensitivity score [11]: -0.56
- selective drug sensitivity score [12]: 1.24
- selective drug sensitivity score [13]: 0.54
- selective drug sensitivity score [14]: 21.7
- selective drug sensitivity score [15]: 16.2
- selective drug sensitivity score [16]: 18.6
- selective drug sensitivity score [17]: 17.7
- selective drug sensitivity score [18]: 19.4
- selective drug sensitivity score [19]: 12.7
- selective drug sensitivity score [20]: 21

Compound: Cc1nc(=O)c2cc(CN(C)c3ccc(C(=O)N[C@@H](CCC(=O)O)C(=O)O)s3)ccc2[nH]1 [Raltitrexed] (top concentration 1000 nM)
- selective drug sensitivity score [1]: 20.7
- selective drug sensitivity score [2]: 23
- selective drug sensitivity score [3]: 16.1
- selective drug sensitivity score [4]: 8.22
- selective drug sensitivity score [5]: -0.58
- selective drug sensitivity score [6]: 19.6
- selective drug sensitivity score [7]: 14.6
- selective drug sensitivity score [8]: 13
- selective drug sensitivity score [9]: 25.8
- selective drug sensitivity score [10]: 19.5
- selective drug sensitivity score [11]: 8.02
- selective drug sensitivity score [12]: -0.68
- selective drug sensitivity score [13]: 2.12
- selective drug sensitivity score [14]: 28.4
- selective drug sensitivity score [15]: 17.3
- selective drug sensitivity score [16]: 17.7
- selective drug sensitivity score [17]: 25.3
- selective drug sensitivity score [18]: 25.7
- selective drug sensitivity score [19]: 20.4
- selective drug sensitivity score [20]: 21.9

Compound: COc1cc2ncnc(Nc3ccc(F)c(Cl)c3)c2cc1OCCCN1CCOCC1 [Gefitinib] (top concentration 10000 nM)
- selective drug sensitivity score [1]: -3.04
- selective drug sensitivity score [2]: 4.16
- selective drug sensitivity score [3]: -3.04
- selective drug sensitivity score [4]: 0.96
- selective drug sensitivity score [5]: -1.84
- selective drug sensitivity score [6]: 1.86
- selective drug sensitivity score [7]: -1.44
- selective drug sensitivity score [8]: 2.76
- selective drug sensitivity score [9]: 2.26
- selective drug sensitivity score [10]: 0.36
- selective drug sensitivity score [11]: 0.66
- selective drug sensitivity score [12]: -2.14
- selective drug sensitivity score [13]: 0.16
- selective drug sensitivity score [14]: 2.96
- selective drug sensitivity score [15]: -0.34
- selective drug sensitivity score [16]: 1.96
- selective drug sensitivity score [17]: 3.36
- selective drug sensitivity score [18]: 5.66
- selective drug sensitivity score [19]: 0.96
- selective drug sensitivity score [20]: 6.16

Compound: N#CC1(c2ccc(NC(=O)c3cccnc3NCc3ccncc3)cc2)CCCC1 [Apatinib] (top concentration 10000 nM)
- selective drug sensitivity score [1]: 0
- selective drug sensitivity score [2]: 2.4
- selective drug sensitivity score [3]: 0
- selective drug sensitivity score [4]: 0
- selective drug sensitivity score [5]: 0
- selective drug sensitivity score [6]: 1.2
- selective drug sensitivity score [7]: 0
- selective drug sensitivity score [8]: 2.2
- selective drug sensitivity score [9]: 0
- selective drug sensitivity score [10]: 0
- selective drug sensitivity score [11]: 0
- selective drug sensitivity score [12]: 0
- selective drug sensitivity score [13]: 0
- selective drug sensitivity score [14]: 0.1
- selective drug sensitivity score [15]: 0
- selective drug sensitivity score [16]: 0
- selective drug sensitivity score [17]: 0
- selective drug sensitivity score [18]: 0.6
- selective drug sensitivity score [19]: 0
- selective drug sensitivity score [20]: 0.3

Compound: O=S(=O)(c1cccc2c(O)nccc12)N1CCCNCC1 [Hydroxyfasudil] (top concentration 19000 nM)
- selective drug sensitivity score [1]: 3.98
- selective drug sensitivity score [2]: -0.92
- selective drug sensitivity score [3]: -0.12
- selective drug sensitivity score [4]: -0.92
- selective drug sensitivity score [5]: -0.92
- selective drug sensitivity score [6]: 5.88
- selective drug sensitivity score [7]: -0.92
- selective drug sensitivity score [8]: 0.08
- selective drug sensitivity score [9]: 1.18
- selective drug sensitivity score [10]: -0.22
- selective drug sensitivity score [11]: -0.92
- selective drug sensitivity score [12]: 5.68
- selective drug sensitivity score [13]: -0.92
- selective drug sensitivity score [14]: 0.78
- selective drug sensitivity score [15]: -0.72
- selective drug sensitivity score [16]: -0.92
- selective drug sensitivity score [17]: -0.02
- selective drug sensitivity score [18]: -0.72
- selective drug sensitivity score [19]: -0.92
- selective drug sensitivity score [20]: 0.98

Compound: O=C(Nc1cc(Cl)cc2c1[nH]c1cnccc12)c1cccnc1 [PS-1145] (top concentration 25000 nM)
- selective drug sensitivity score [1]: -0.46
- selective drug sensitivity score [2]: -0.36
- selective drug sensitivity score [3]: -0.46
- selective drug sensitivity score [4]: -0.46
- selective drug sensitivity score [5]: -0.46
- selective drug sensitivity score [6]: 6.74
- selective drug sensitivity score [7]: -0.36
- selective drug sensitivity score [8]: -0.46
- selective drug sensitivity score [9]: 0.44
- selective drug sensitivity score [10]: -0.46
- selective drug sensitivity score [11]: -0.46
- selective drug sensitivity score [12]: -0.46
- selective drug sensitivity score [13]: -0.46
- selective drug sensitivity score [14]: -0.46
- selective drug sensitivity score [15]: -0.46
- selective drug sensitivity score [16]: -0.46
- selective drug sensitivity score [17]: -0.16
- selective drug sensitivity score [18]: -0.46
- selective drug sensitivity score [19]: -0.46
- selective drug sensitivity score [20]: 1.34

Compound: Cc1c2oc3c(C)ccc(C(=O)N[C@@H]4C(=O)N[C@H](C(C)C)C(=O)N5CCC[C@H]5C(=O)N(C)CC(=O)N(C)[C@@H](C(C)C)C(=O)O[C@@H]4C)c3nc-2c(C(=O)N[C@@H]2C(=O)N[C@H](C(C)C)C(=O)N3CCC[C@H]3C(=O)N(C)CC(=O)N(C)[C@@H](C(C)C)C(=O)O[C@@H]2C)c(N)c1=O [Dactinomycin] (top concentration 1000 nM)
- selective drug sensitivity score [1]: 17.2
- selective drug sensitivity score [2]: 8.24
- selective drug sensitivity score [3]: 11.6
- selective drug sensitivity score [4]: 15.2
- selective drug sensitivity score [5]: -11.2
- selective drug sensitivity score [6]: 12.4
- selective drug sensitivity score [7]: 2.64
- selective drug sensitivity score [8]: 0.64
- selective drug sensitivity score [9]: 19.2
- selective drug sensitivity score [10]: 20.7
- selective drug sensitivity score [11]: 8.94
- selective drug sensitivity score [12]: 7.84
- selective drug sensitivity score [13]: 12.2
- selective drug sensitivity score [14]: 17.8
- selective drug sensitivity score [15]: 17.3
- selective drug sensitivity score [16]: 16.9
- selective drug sensitivity score [17]: 18.8
- selective drug sensitivity score [18]: 5.94
- selective drug sensitivity score [19]: 0.44
- selective drug sensitivity score [20]: 15.7

From the supplement of paper PMC8967900
